Experimental data taken from US12441768B2, “Compositions and methods for treating endometriosis” (EndoMet Biosciences, Inc., priority 2018, dated 2025).
Where a SMILES comes first, the peptide text is derived from it.

Molecular target: T1, β-catenin (Homo sapiens, UniProt P35222)
T1 sequence (P35222 1-781): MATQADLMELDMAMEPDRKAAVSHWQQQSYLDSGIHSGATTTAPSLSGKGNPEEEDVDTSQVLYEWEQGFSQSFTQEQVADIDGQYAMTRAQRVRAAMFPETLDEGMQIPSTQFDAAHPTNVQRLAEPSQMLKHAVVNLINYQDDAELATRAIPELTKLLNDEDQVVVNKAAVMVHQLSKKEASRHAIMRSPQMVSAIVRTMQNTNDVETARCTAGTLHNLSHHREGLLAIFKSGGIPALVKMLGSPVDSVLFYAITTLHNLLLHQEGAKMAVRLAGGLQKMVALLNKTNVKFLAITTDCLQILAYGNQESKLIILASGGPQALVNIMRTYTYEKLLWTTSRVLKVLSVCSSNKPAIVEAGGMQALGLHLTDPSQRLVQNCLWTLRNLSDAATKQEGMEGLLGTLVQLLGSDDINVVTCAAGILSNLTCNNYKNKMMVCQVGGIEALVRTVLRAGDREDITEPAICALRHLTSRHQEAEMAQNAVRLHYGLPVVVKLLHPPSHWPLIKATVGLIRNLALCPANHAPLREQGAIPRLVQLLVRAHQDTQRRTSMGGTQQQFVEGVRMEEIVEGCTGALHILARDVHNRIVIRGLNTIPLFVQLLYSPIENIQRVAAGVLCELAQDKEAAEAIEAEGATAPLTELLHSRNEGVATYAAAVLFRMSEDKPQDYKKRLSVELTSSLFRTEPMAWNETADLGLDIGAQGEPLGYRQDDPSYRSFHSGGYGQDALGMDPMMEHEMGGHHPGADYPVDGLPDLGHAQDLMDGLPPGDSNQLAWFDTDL
Assay: KD50 measurement using competitive fluorescence polarization (FP) with labelled TCF4
Assay type: binding
Conditions: fluorescence polarization, β-catenin; for Kd: read-out: β-Cat FP KD
In short: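 Tracer: labelled TCF4, 5 nM; protein 100 nM; RT incubation. Competitor dilution series 10 nM–30 uM. FP read ex 470 / em 520 nm. n = 3.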

| SMILES | β-Cat FP Hill slope | Kd [nM] |
| --- | --- | --- |
| CC[C@@H]1NC(=O)[C@H]([C@@H](C)CC)NC(=O)[C@H](CC(C)C)NC(=O)[C@H](Cc2ccccc2)NC(=O)[C@H](Cc2c[nH]c3ccccc23)NC(=O)[C@@H](N)CCCCNC(=O)C[C@@H](C(=O)O)NC(=O)[C@H](Cc2c[nH]c3ccccc23)NC(=O)[C@H](C)NC1=O [compound 244] (HELM PEPTIDE1{K.W.F.L.I.[Abu].A.W.D}$PEPTIDE1,PEPTIDE1,1:R3-9:R3$$$V2.0) | 1.9 | 400 to 1000 |
| CC[C@H](C)[C@H](NC(=O)[C@H](CO)NC(=O)[C@H](CCC(N)=O)NC(=O)[C@H](C)N(C)C(=O)[C@H](Cc1c[nH]c2ccccc12)NC(C)=O)C(=O)N[C@@H](CC(C)C)C(=O)N[C@@H](CC(=O)O)C(=O)N[C@H]1CCC(=O)NCCCC[C@@H](C(=O)N[C@H](C(=O)N[C@@H](Cc2c[nH]c3ccccc23)C(=O)NCC(N)=O)C(C)C)NC(=O)[C@H](CCC(N)=O)NC(=O)[C@H](C2CCCCC2)NC(=O)[C@H](Cc2c[nH]cn2)NC1=O [compound 470] (HELM PEPTIDE1{[ac].W.[meA].Q.S.I.L.D.E.H.[O=C([C@@H](N[*:1])C1CCCCC1)[*:2]].Q.K.V.W.G.[am]}$PEPTIDE1,PEPTIDE1,9:R3-13:R3$$$V2.0) | 0.81 | < 400 |
| CCCCCCCCCCCCCCCCCC(=O)N[C@@H](Cc1c[nH]c2ccccc12)C(=O)N(C)[C@@H](Cc1c[nH]c2ccccc12)C(=O)N[C@@H](CCC(=O)O)C(=O)NC(C)(CO)C(=O)N[C@H](C(=O)N[C@@H](CC(C)C)C(=O)N[C@@H](CC(=O)O)C(=O)N[C@@H](CCC(=O)O)C(=O)N[C@@H](Cc1c[nH]cn1)C(=O)NC(C)(C(=O)N[C@@H](CCC(N)=O)C(=O)N[C@@H](CCCNC(=N)N)C(=O)N[C@H](C(=O)N[C@@H](Cc1c[nH]c2ccccc12)C(=O)O)C(C)C)C(C)C)[C@@H](C)CC (single isomer, unassigned) [SEQ ID NO: 393/500, Stearyl-W-NmeW-E-aMeS-ILDEH-aMeV-QRVW-COOH] | – | > 30000 |
| CC[C@H](C)[C@@H]1NC(=O)[C@@H](NC(=O)[C@H](CCC(N)=O)NC(=O)[C@H](C)N(C)C(=O)[C@@H](N)Cc2c[nH]c3ccccc23)CCCCNC(=O)CC[C@@H](C(=O)N[C@@H](Cc2c[nH]cn2)C(=O)N[C@H](C(=O)N[C@@H](CO)C(=O)N[C@@H](CCCNC(=N)N)C(=O)N[C@H](C(=O)N[C@@H](Cc2c[nH]c3ccccc23)C(=O)NCC(N)=O)C(C)C)C2CCCCC2)NC(=O)[C@H](CC(=O)O)NC(=O)[C@H](CC(C)C)NC1=O [compound 415] (HELM PEPTIDE1{W.[meA].Q.K.I.L.D.E.H.[O=C([C@@H](N[*:1])C1CCCCC1)[*:2]].S.R.V.W.G.[am]}$PEPTIDE1,PEPTIDE1,4:R3-8:R3$$$V2.0) | 0.7 | < 400 |
| CCCCCCCCCCCC(=O)N[C@@H](Cc1c[nH]c2ccccc12)C(=O)N(C)[C@@H](C)C(=O)N[C@@H](CCC(N)=O)C(=O)N[C@@H](CO)C(=O)N[C@H](C(=O)N[C@@H](CC(C)C)C(=O)N[C@@H](CC(=O)O)C(=O)N[C@H]1CCCCNC(=O)C[C@@H](C(=O)N[C@H](C(=O)N[C@@H](Cc2c[nH]c3ccccc23)C(N)=O)C(C)C)NC(=O)[C@H](CCC(N)=O)NC(=O)[C@H](C2CCCCC2)NC(=O)[C@H](Cc2c[nH]cn2)NC1=O)[C@@H](C)CC [compound 461] (HELM PEPTIDE1{[CCCCCCCCCCCC(=O)[*:2]].W.[meA].Q.S.I.L.D.K.H.[O=C([C@@H](N[*:1])C1CCCCC1)[*:2]].Q.D.V.W.[am]}$PEPTIDE1,PEPTIDE1,9:R3-13:R3$$$V2.0) | – | < 400 |
| CC[C@H](C)[C@@H]1NC(=O)[C@@H](NC(=O)[C@H](CCC(N)=O)NC(=O)[C@@H]2CCCN2C(=O)[C@H](Cc2c[nH]c3ccccc23)NC(=O)[C@H](CCCNC(=N)N)NC(=O)[C@H](CCCNC(=N)N)NC(C)=O)CCCCNC(=O)CC[C@@H](C(=O)N[C@@H](Cc2c[nH]cn2)C(=O)N[C@H](C(=O)N[C@@H](CCCNC(=N)N)C(=O)N[C@@H](CCCNC(=N)N)C(=O)N[C@H](C(=O)N[C@@H](Cc2c[nH]c3ccccc23)C(=O)N[C@@H](CCCNC(=N)N)C(N)=O)C(C)C)C(C)C)NC(=O)[C@H](CC(=O)O)NC(=O)[C@H](CC(C)C)NC1=O [compound 429] (HELM PEPTIDE1{[ac].R.R.W.P.Q.K.I.L.D.E.H.V.R.R.V.W.R.[am]}$PEPTIDE1,PEPTIDE1,7:R3-11:R3$$$V2.0) | 0.7 | 400 to 1000 |
| CC[C@H](C)[C@@H]1NC(=O)[C@@H](NC(=O)[C@H](CCC(N)=O)NC(=O)[C@H](C)N(C)C(=O)[C@H](Cc2c[nH]c3ccccc23)NC(C)=O)CCCCNC(=O)CC[C@@H](C(=O)N[C@@H](Cc2c[nH]cn2)C(=O)N[C@H](C(=O)N[C@@H](CCC(N)=O)C(=O)N[C@@H](CCCNC(=N)N)C(=O)N[C@H](C(=O)N[C@@H](Cc2c[nH]c3ccccc23)C(N)=O)C(C)C)C2CCCCC2)NC(=O)[C@H](CC(=O)O)NC(=O)[C@H](CC(C)C)NC1=O [compound 446] (HELM PEPTIDE1{[ac].W.[meA].Q.K.I.L.D.E.H.[O=C([C@@H](N[*:1])C1CCCCC1)[*:2]].Q.R.V.W.[am]}$PEPTIDE1,PEPTIDE1,5:R3-9:R3$$$V2.0) | 0.7 | < 400 |
| CCCCCCCCCCCC(=O)N[C@@H](CCC(=O)O)C(=O)N[C@@H](CC(=O)O)C(=O)N1CCC[C@H]1C(=O)N[C@@H](CCC(N)=O)C(=O)N[C@H]1CCCCNC(=O)CC[C@@H](C(=O)N[C@@H](Cc2c[nH]cn2)C(=O)N[C@@H](CC(C)C)C(=O)N[C@@H](CCC(N)=O)C(=O)N[C@@H](CCCNC(=N)N)C(=O)N[C@H](C(=O)N[C@@H](CC(C)C)C(=O)N[C@@H](CCCCN)C(N)=O)C(C)C)NC(=O)[C@H](CC(=O)O)NC(=O)[C@H](CC(C)C)NC(=O)[C@H]([C@@H](C)CC)NC1=O [compound 444] (HELM PEPTIDE1{[CCCCCCCCCCCC(=O)[*:2]].E.D.P.Q.K.I.L.D.E.H.L.Q.R.V.L.K.[am]}$PEPTIDE1,PEPTIDE1,6:R3-10:R3$$$V2.0) | – | < 400 |
| CC[C@H](C)[C@H](NC(=O)[C@H](CC(C)C)NC(=O)[C@@H](NC(=O)[C@@H](N)Cc1c[nH]c2ccccc12)[C@@H](C)CC)C(=O)N[C@@H](C)C(=O)N[C@@H](Cc1ccccc1)C(=O)N[C@@H](Cc1c[nH]c2ccccc12)C(=O)NCC(=O)O [compound 265] (H-WILIAFWG-OH) | 0.7 | 1000 to 10000 |
| CCCCCCCCCCCC(=O)N[C@@H](Cc1c[nH]c2ccccc12)C(=O)N(C)[C@@H](C)C(=O)N[C@@H](CCC(N)=O)C(=O)N[C@@H](CO)C(=O)N[C@H](C(=O)N[C@@H](CC(C)C)C(=O)N[C@@H](CC(=O)O)C(=O)N[C@H]1CCC(=O)NCCCC[C@@H](C(=O)N[C@H](C(=O)N[C@@H](Cc2c[nH]c3ccccc23)C(=O)NCC(N)=O)C(C)C)NC(=O)[C@H](CCC(N)=O)NC(=O)[C@H](C2CCCCC2)NC(=O)[C@H](Cc2c[nH]cn2)NC1=O)[C@@H](C)CC [compound 471] (HELM PEPTIDE1{[CCCCCCCCCCCC(=O)[*:2]].W.[meA].Q.S.I.L.D.E.H.[O=C([C@@H](N[*:1])C1CCCCC1)[*:2]].Q.K.V.W.G.[am]}$PEPTIDE1,PEPTIDE1,9:R3-13:R3$$$V2.0) | – | < 400 |
| CC[C@H](C)[C@@H]1NC(=O)[C@@H](NC(=O)[C@H](CCC(N)=O)NC(=O)[C@H](C)N(C)C(=O)[C@H](Cc2c[nH]c3ccccc23)NC(C)=O)CCCCNC(=O)CC[C@@H](C(=O)N[C@@H](Cc2c[nH]cn2)C(=O)N[C@H](C(=O)NC(C)(C)C(=O)N[C@@H](CCCNC(=N)N)C(=O)N[C@H](C(=O)N[C@@H](Cc2c[nH]c3ccccc23)C(=O)NCC(N)=O)C(C)C)C2CCCCC2)NC(=O)[C@H](CC(=O)O)NC(=O)[C@H](CC(C)C)NC1=O [compound 414] (HELM PEPTIDE1{[ac].W.[meA].Q.K.I.L.D.E.H.[O=C([C@@H](N[*:1])C1CCCCC1)[*:2]].[Aib].R.V.W.G.[am]}$PEPTIDE1,PEPTIDE1,5:R3-9:R3$$$V2.0) | 0.7 | < 400 |
| CC[C@H](C)[C@H](NC(=O)[C@H](CC(C)C)NC(=O)[C@H](Cc1ccccc1)NC(=O)[C@H](Cc1c[nH]c2ccccc12)NC(=O)[C@H](CCSC)NC(=O)[C@H](CCCNC(=N)N)NC(=O)[C@H](CO)NC(=O)[C@@H](N)CCSC)C(=O)N[C@@H](CO)C(=O)N[C@@H](Cc1ccccc1)C(=O)N[C@@H](Cc1c[nH]c2ccccc12)C(=O)N[C@@H](CCCCN)C(N)=O [compound 6] (H-MSRMWFLISFWK-NH2) | – | > 30000 |
| CCCCCCCCC(=O)N[C@@H](Cc1c[nH]c2ccccc12)C(=O)N(C)[C@@H](C)C(=O)N[C@@H](CCC(N)=O)C(=O)N[C@@H](CO)C(=O)N[C@H](C(=O)N[C@@H](CC(C)C)C(=O)N[C@@H](CC(=O)O)C(=O)N[C@H]1CCC(=O)NCCCC[C@@H](C(=O)N[C@H](C(=O)N[C@@H](Cc2c[nH]c3ccccc23)C(=O)NCC(N)=O)C(C)C)NC(=O)[C@H](CCC(N)=O)NC(=O)[C@H](C(C)C)NC(=O)[C@H](Cc2c[nH]cn2)NC1=O)[C@@H](C)CC [compound 438] (HELM PEPTIDE1{[CCCCCCCCC(=O)[*:2]].W.[meA].Q.S.I.L.D.E.H.V.Q.K.V.W.G.[am]}$PEPTIDE1,PEPTIDE1,9:R3-13:R3$$$V2.0) | – | < 400 |
